# Key:
# SERCA (SR vesicles) = experiment: Activation of SERCA, increase in Vmax; type: biochemical
# Experimental: Test compounds were characterized over a range of concentrations using an NADH-linked, enzyme-coupled ATPase assay. Each well contained 2 mg or 7 mg of SR vesicles (optimized for skeletal or cardiac SR, respectively), 50 mM MOPS (pH 7.0), 100 mM KCl, 5 mM MgCl2, 1 mM EGTA, 0.2 mM NADH, 1 mM phosphoenol pyruvate, 5 IU pyruvate kinase, 5 IU lactate dehydrogenase, and 3.5 mg/mL A23187 (a calcium ionophore), and CaCl2 was added to set free [Ca2+] to the specific values. The assay was started upon addition of ATP at a final concentration of 5 mM, and read in a SpectraMax Plus microplate spectrophotometer and the ATPase activities were fitted using the Hill function.
# CSM14.1 cells = experiment: ER stress cell survival assay (thapsigargin); type: cell-based; conditions: for Cell Survival: compound 2 μM, about 15 μM thapsigargin, CSM14.1 cells; for EC50: dose-response;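 on cell survival: survival read as CellTiter-Glo luminescence after overnight incubation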
# Experimental: ER Stress Cell Survival Assay
# CSM14.1 cells were maintained in Complete Medium at 32° C.; wherein the Complete Medium contained Dulbecco's modified eagle medium (DMEM) with 10% fetal bovine serum (FSB), 1% L-glutamine, 100 IU/mL penicillin, and 100 μg/mL streptomycin. The cells were recovered from cultures by trypsinization and then seeded in 384 well plates (Greiner #781098) at a concentration of 1,000 cells/well in 20 μL of DMEM Assay Medium, wherein the DMEM Assay Medium contained 2% FBS, 100 IU/mL penicillin, and 100 μg/mL streptomycin. Seeding was performed using a MultiDrop Combi reagent broadcaster. The plates were incubated overnight at 32° C.
# A test compound was prepared by 2-fold serial dilution in 100% DMSO using a BIOMEK® 2000 liquid handler (Beckman Coulter). A dose-response curve containing 10 concentrations of the test compound was obtained. Using a BIOMEK® FX liquid handler (Beckman Coulter), 2.5 μL of the test compound was transferred from the 100% DMSO serial dilution plate to an intermediate plate containing 47.5 μL of DMEM Assay Medium containing 2% FBS, 100 IU/mL penicillin, and 100 μg/mL streptomycin and mixed. To reduce or eliminate the interference from the compound's precipitation, 6 μL of the diluted compound was immediately transferred to the assay plate to achieve a high compound concentration of 100 μM in 99% DMEM Assay Medium and 1% DMSO. After the assay plates were incubated for 2 hrs, 4 μL of 112.5 μM thapsigargin (TG) (DMSO stock diluted into Assay TC Medium) was dispensed into each testing well with a MultiDrop Combi reagent broadcaster for a final concentration of about 15 μM TG. The tissue culture media (4 μL) containing vehicle only was transferred manually to each control cell using a 16 channel electronic pipette. […] High luminescence indicates cell survival.
# Alternatively, a test compound was tested at a single compound concentration (e.g., 2 μM) to determine the effect of the compound on cell survival in comparison with vehicle.
# N2a cells [1] = experiment: Protection against hydrogen peroxide-induced cell death, N2a; type: cell-based, mouse; conditions: compound 40 μM; hydrogen peroxide 200 μM
# Experimental: Protection against Hydrogen Peroxide-induced Cell-death. N2a cells grown in 96-well plates were exposed to a test compound (40 μM) for 2 hrs before addition of hydrogen peroxide (200 μM). After 40 min of incubation with hydrogen peroxide, ALAMARBLUE® regent (10% v/v) was added to the wells. Fluorescence reading was taken 2 hrs after the addition of the ALAMARBLUE® regent. Cell-viability was calculated as a percentage of relative fluorescence unit (RFU) compared to control.
# (§1) The results are summarized in Table 2, where A represents a value greater than 50% cell rescue, B represents a value between 10% to 50% cell rescue, C represents a value between 1% to 10% cell rescue, and D represents a value no greater than 1% cell rescue.
# N2a cells [2] = experiment: Protection against thapsigargin (TG)-induced cell death, N2a; type: cell-based, mouse; conditions: compound 20 μM; thapsigargin 1 μM; 24 hrs
# Experimental: Protection against Thapsigargin (TG)-induced Cell-death. Human embryonic kidney (HEK293) cells were grown in Dulbecco's Modified Eagle's Medium (DMEM) with 10% FBS and 1% antibiotic antimycotic solution (ABAM). Mouse neuroblastoma (N2a) cells were grown in 1:1 DMEM:OPTI-MEM® with 5% FBS and 1% ABAM. All cells were grown in 10% CO2 in a humidified environment of the incubator. Cells grown in 96-well plates were exposed to a test compound (20 μM) for 2 hrs before addition of thapsigargin (15 μM for HEK293 cells and 1 μM for N2a cells) to induce ER stress. After incubation in cell-culture incubator for 24 hrs, ALAMARBLUE® regent (10% v/v) was added to the wells. Fluorescence reading was taken 2 hrs after the addition of the ALAMARBLUE® regent. Cell-viability was calculated as a percentage of relative fluorescence unit (RFU) compared to control.
# as §1
# [3] = Pharmacokinetics in CD-1 mice; type: in vivo, mouse; conditions: CD-1 mice
# Experimental: Pharmacokinetics of test compounds were assessed in CD-1 mice. The compounds were formulated at 1 mg/mL in DMSO/Tween 80/water (10/10/80, vol/vol/vol) and dosed at 2 mg/kg intravenous (i.v.) or 10 mg/kg by oral gavage (P.O.) in triplicate. Blood was drawn at 0.25 h, 0.5 h, 1 hr, 2 hrs, 4 hrs, 8 hrs, and 24 hrs into EDTA containing tubes and plasma was harvested by centrifugation. Plasma (10 μL) containing 50% acetonitrile in water (5 μL) was added to 200 μL of ACN containing an internal standard. The samples were vortexed for 30 s. After centrifugation at […] and 4,000 rpm for 15 min, the supernatant was diluted 3 times with water. Then, 20 μL of diluted supernatant was injected into the LC/MS/MS system for quantitative analysis. The samples were injected onto an Agilent ZORBAX XDB-Phenyl 5μ column (50×2.10 mm). Mobile Phase A was water with 0.1% formic acid. Mobile Phase B was acetonitrile with 0.1% formic acid. Separation was achieved using a gradient of 70% A/30% B to 0% A/100% B over 2.10 min. A Shimadzu LCMS-8050 equipped with a turbo ion spray source was used for all analytical measurements. A positive ion MRM method was developed. Peak areas of the product ion were measured against the peak areas of the internal standard. Data was fit using WinNonLin (Pharsight Corporation, Mountain View, CA).
# [4] = mouse, plasma, 2 mg/kg i.v. or 10 mg/kg P.O.
SMILES,Increase in Vmax at 10 μM (SERCA (SR vesicles)),N2a Cells (TG-induced) cell rescue (N2a cells [2]),also measured
"Cc1ccc2cccc(NC(=O)c3ccc(C(C)(C)C)cc3)c2n1 [Compound A4, 4-(tert-Butyl)-N-(2-methylquinolin-8-yl)benzamide]",B′ (B′ represents an increase between 20 to 50%),,Cell Survival (CSM14.1 cells): D (D represents a value no greater than 1%); EC50 (CSM14.1 cells): > 100 µM
"O=C(Nc1cccc2cccnc12)c1cccc(F)c1 [Compound A7, 3-Fluoro-N-(quinolin-8-yl)benzamide]",B′ (B′ represents an increase between 20 to 50%),,
"CCOc1ccccc1C(=O)Nc1cccc2ccc(C)nc12 [Compound A10, 2-Ethoxy-N-(2-methylquinolin-8-yl)benzamide]",C′ (C′ represents an increase no greater than 20%),,
"CC(C)Oc1ccc(C(=O)Nc2cccc3cccnc23)cc1 [Compound A11, 4-Isopropoxy-N-(quinolin-8-yl)benzamide]",A′ (A′ represents an increase greater than 50%),,
"COc1ccc(CCC(=O)Nc2cccc3ccc(C)nc23)cc1 [Compound A23, 3-(4-Methoxyphenyl)-N-(2-methylquinolin-8-yl)propanamide]",A′ (A′ represents an increase greater than 50%),,
"Cc1ccc2cccc(NC(=O)c3cc4ccccc4o3)c2n1 [Compound A27, N-(2-Methylquinolin-8-yl)benzofuran-2-carboxamide]",A′ (A′ represents an increase greater than 50%),,N2a Cells (H2O2-induced) cell rescue (N2a cells [1]): A (A represents a value greater than 50% cell rescue); EC50 (CSM14.1 cells): < 20 µM
"Cc1ccc2cccc(NC(=O)c3cc4ccccc4s3)c2n1 [Compound B2, N-(2-Methylquinolin-8-yl)benzo[b]thiophene-2-carboxamide]",A′ (A′ represents an increase greater than 50%),A (A represents a value greater than 50% cell rescue),N2a Cells (H2O2-induced) cell rescue (N2a cells [1]): B (B represents a value between 10% to 50% cell rescue)
"Cc1ccc2cccc(NC(=O)c3ccc(Cl)cc3)c2n1 [Compound C17, 4-Chloro-N-(2-methylquinolin-8-yl)benzamide]",,,Cell Survival (CSM14.1 cells): D (D represents a value no greater than 1%)
"Cc1ccc2cccc(NC(=O)c3ccc(SC(C)C)cc3)c2n1 [Compound C21, 4-(Isopropylthio)-N-(2-methylquinolin-8-yl)benzamide]",,,Cell Survival (CSM14.1 cells): C (C represents a value between 1% and 10%)
"CCSc1ccc(C(=O)Nc2cccc3ccc(C)nc23)cc1 [Compound C22, 4-(Ethylthio)-N-(2-methylquinolin-8-yl)benzamide]",,,Cell Survival (CSM14.1 cells): D (D represents a value no greater than 1%)
"CC(C)Oc1ccc(C(=O)Nc2cccc3ccc(C(=O)O)nc23)cc1 [Compound E1, 8-(4-Isopropoxybenzamido)quinoline-2-carboxylic Acid]",,A (A represents a value greater than 50% cell rescue),
"CC(C)Oc1cccc(C(=O)Nc2cccc3ccc(C(=O)O)nc23)c1 [Compound E2, 8-(3-Isopropoxybenzamido)quinoline-2-carboxylic acid]",,A (A represents a value greater than 50% cell rescue),
"O=C(O)c1ccc2cccc(NC(=O)c3ccc(Br)s3)c2n1 [Compound E3, 8-(5-Bromothiophene-2-carboxamido)quinoline-2-carboxylic Acid]",,A (A represents a value greater than 50% cell rescue),
"O=C(O)c1ccc2cccc(NC(=O)c3cc4ccccc4s3)c2n1 [Compound E4, 8-(Benzo[b]thiophene-2-carboxamido)quinoline-2-carboxylic Acid]",,B (B represents a value between 10% to 50% cell rescue),
"Cc1cc(C)n(-c2ccc3cccc(NC(=O)c4cccc(OC(C)C)c4)c3n2)n1 [Compound F1, N-(2-(3,5-Dimethyl-1H-pyrazol-1-yl)quinolin-8-yl)-3-isopropoxybenzamide]",,A (A represents a value greater than 50% cell rescue),
"Cc1cc(C)n(-c2ccc3cccc(NC(=O)c4ccc(OC(C)C)cc4)c3n2)n1 [Compound F2, N-(2-(3,5-Dimethyl-1H-pyrazol-1-yl)quinolin-8-yl)-4-isopropoxybenzamide]",,A (A represents a value greater than 50% cell rescue),
"Cc1cc(C)n(-c2ccc3cccc(NC(=O)c4ccc(Br)s4)c3n2)n1 [Compound F3, 5-Bromo-N-(2-(3,5-dimethyl-1H-pyrazol-1-yl)quinolin-8-yl)thiophene-2-carboxamide]",,A (A represents a value greater than 50% cell rescue),
"Cc1cc(C)n(-c2ccc3cccc(NC(=O)c4cc5ccccc5s4)c3n2)n1 [Compound F4, N-(2-(3,5-Dimethyl-1H-pyrazol-1-yl)quinolin-8-yl)benzo[b]thiophene-2-carboxamide]",,B (B represents a value between 10% to 50% cell rescue),
"Cc1ccc2cccc(NC(=O)c3ccc(C)s3)c2n1 [Compound G2, 5-Methyl-N-(2-methylquinolin-8-yl)thiophene-2-carboxamide]",A′ (A′ represents an increase greater than 50%),,"F ([3]; 10 mg/kg P.O. vs 2 mg/kg i.v.): 0.85%; AUC [3, 4]: 4.5 ng·h/mL; Cmax [3, 4]: 20 nM; half-life [3, 4]: 33.6 min; N2a Cells (H2O2-induced) cell rescue (N2a cells [1]): A (A represents a value greater than 50% cell rescue); EC50 (CSM14.1 cells): < 20 µM"
"Cc1ccc2cccc(NC(=O)c3sc(Br)cc3Br)c2n1 [Compound G6, 3,5-Dibromo-N-(2-methylquinolin-8-yl)thiophene-2-carboxamide]",C′ (C′ represents an increase no greater than 20%),,N2a Cells (H2O2-induced) cell rescue (N2a cells [1]): A (A represents a value greater than 50% cell rescue); EC50 (CSM14.1 cells): < 20 µM
"Cc1ccc2cccc(NC(=O)c3cc(Br)c(Br)s3)c2n1 [Compound G7, 4,5-Dibromo-N-(2-methylquinolin-8-yl)thiophene-2-carboxamide]",A′ (A′ represents an increase greater than 50%),,N2a Cells (H2O2-induced) cell rescue (N2a cells [1]): A (A represents a value greater than 50% cell rescue); EC50 (CSM14.1 cells): < 20 µM
